Source: article PMC12040169 (PLOS Biology, 2025)

Experiment: in vitro
Settings: human, hela cells, % viability

| Compound | viability at 28.5 h, 10 µM [%] |
| --- | --- |
| c1coc(-c2ccc3c(c2)COC2(CCN(CCc4ccc5c(c4)OCO5)CC2)O3)c1 [CBK061057] | 90.4 |
| COCCN(Cc1cn2cccc(C(=O)OC)c2n1)Cc1ccco1 [CBK305366] | 97.8 |
| CCOC(=O)c1sc(NS(=O)(=O)Cc2ccccc2[N+](=O)[O-])nc1C [CBK047458] | 98.5 |
| C=Cn1ncc(CN(CCN(C)C)Cc2ccc(C)o2)c1C [CBK283236] | 110 |
| N#C/C(=C\c1ccc(OCC(=O)O)cc1)C(N)=S [CBK268917] | 102 |
| O=C(CSc1nnc(-c2ccccn2)[nH]1)NC1CC2CCC1C2 (centres unmarked) [CBK269994] | 83 |
| CC1(C)CC(=O)C2=C(C1)c1c(ccc3ccccc13)NC2c1ccc(-c2ccc(O)c(C(=O)O)c2)o1 (centres unmarked) [CBK261823] | 108 |
| O=S(=O)(Nc1ncc(Br)c2cccnc12)c1ccc(Cl)c(Cl)c1 [CBK073888] | 89.5 |
| CC(C)c1cc2cc3ccc(=O)oc3cc2o1 [CBK033944] | 93.6 |
| CC1=NNC(=O)C1CCC(=O)N/N=C/C(Br)=C/c1ccccc1 (centres unmarked) [CBK262929] | 100 |
| O=C1S/C(=C\c2ccc(O)c([N+](=O)[O-])c2)C(=O)N1Cc1ccc(F)cc1 [CBK102928] | 94.9 |
| OCCSc1ccc(C(F)(F)F)cn1 [CBK028739] | 115 |
| CCCC(=O)NC(c1ccccn1)C1CCC(CNC(C)=O)CC1 (centres unmarked) [CBK283080] | 102 |
| Cc1c(S(=O)(=O)Nc2nnc(C(F)(F)F)s2)sc2ccc(Cl)cc12 [CBK062018] | 81.9 |
| O=S(=O)(Cc1ccc(-c2nc(-c3ccncc3)no2)o1)c1ccccc1 [CBK288579] | 96.6 |
| CS(=O)(=O)c1ccc(CNC(=O)C2(c3ccccc3)CCCC2)cc1 [CBK161524] | 96.3 |
| Cc1cccc(NC(=O)c2cc(NC(=O)C3CCCCC3C(=O)O)ccc2N2CCCCC2)c1 (centres unmarked) [CBK267332] | 97.3 |
| O=C(Nc1cnc(-c2ccc(F)c(Cl)c2)c(-c2cccnc2)n1)c1ccc(N2CCCC2=O)cc1 [CBK036794] | 107 |
| Cc1ccc(NC(=O)C2CN(S(=O)(=O)c3ccccc3)CCN2S(=O)(=O)c2ccccc2)c(C)c1 (centres unmarked) [CBK262693] | 83.8 |
| Cc1ccc(C(=O)NCC(c2ccccc2Cl)N2CCOCC2)c(=O)[nH]1 (centres unmarked) [CBK305928] | 99.3 |
| COc1cc2c(cc1OC)CN(C(=O)c1cncnc1)CC2 [CBK122748] | 105 |
| C=CCNC(=O)N[C@H]1[C@H](O)[C@@H](N(CC)CC)[C@@H]2OC[C@H]1O2 [CBK288817] | 91.1 |

| Compound | viability at 28.5 h, 10 µM [%] |
| --- | --- |
| Cc1cccc(-c2nc(C3CCCNC3)n3ccccc23)c1 (centres unmarked) [CBK035528] | 92.3 |
| OC(CN1CCC(O)(c2ccccc2F)CC1)c1ccc(Cl)cc1 (centres unmarked) [CBK283312] | 87 |
| O=C(c1cccs1)N1CCC(n2c(=O)oc3ccccc32)CC1 [CBK284347] | 88.2 |
| Cc1ccn(CCC(=O)NC(Cc2ccsc2)c2nccs2)n1 (centres unmarked) [CBK285137] | 92.5 |
| Cc1ccc(CNC(=O)Cn2nnc(-c3ccc(CN4CCCC(C(F)(F)F)C4)cc3)n2)cc1 (centres unmarked) [CBK144562C] | 109 |
| COc1cccc(N2CC(C(=O)Nc3cccc(C(=O)O)c3)CC2=O)c1 (centres unmarked) [CBK286612] | 99.7 |
| COC(=O)c1ccc(N2CCN(C(C)c3nnc(C)o3)C(C)C2)cc1 (centres unmarked) [CBK304926] | 108 |
| Nc1ncncc1-c1ccc(Cl)cc1 [CBK012407] | 90.9 |
| Cc1ccc2nc(C)cc(NC(=O)c3ccncc3)c2c1 [CBK287801] | 81.5 |
| Cc1ccccc1C(=O)NCC(=O)NCc1csc(-c2ccccc2)n1 [CBK092334] | 91.8 |
| COc1ccc(-c2nc(NC(=O)CC#N)cnc2-c2ccc(F)cc2)cc1 [CBK037198] | 104 |
| Cc1cc(C(=O)N2CCC(C(=O)NC(c3cnccn3)c3ccccc3C)CC2)no1 (centres unmarked) [CBK059810] | 93.6 |
| Cc1ccc(CNc2cc(C)ccn2)cc1 [CBK005419] | 106 |
| Cc1cc(C(=O)C(C)Sc2nnc(N)s2)c(C)n1-c1ccccc1 (centres unmarked) [CBK297916] | 87 |
| Cc1ccc(CCCC(=O)N2CCc3c([nH]c4c(C)cccc34)C23CCN(Cc2ccc(F)cc2)C3)cc1 (centres unmarked) [CBK066979] | 99.2 |
| O=C(NCc1cccs1)C1(Cc2ccccc2-c2coc3ccccc23)CCOCC1 [CBK286310] | 108 |
| CC(C)(O)C#Cc1ccc(C(=O)NC(Cc2c[nH]c3ccccc23)C(=O)O)cc1 (centres unmarked) [CBK267703] | 96.5 |
| CS(=O)(=O)N1CCN(c2ccc(NC(=O)CSc3nc(-c4ccccc4)cs3)cc2)CC1 [CBK267934] | 91.2 |
| Cc1ccc(C2=NN(C(=N)SC3CC(=O)N(c4ccc(C(=O)O)cc4)C3=O)C(c3ccc(Br)cc3)C2)cc1 (centres unmarked) [CBK263497] | 112 |
| Cc1noc(C)c1S(=O)(=O)Nc1ccnn1C [CBK062073] | 90.1 |
| O=c1n(-c2ccc(OC(F)(F)F)cc2)ccn1S(=O)(=O)c1ccccc1 [CBK106655] | 95.1 |
| C=C(C)Cn1c(=O)c2c(nc3[nH]c(C)c(C)n32)n(C)c1=O [CBK288184] | 102 |
